Measurements reported in PubChem BioAssay AID588407 (The Scripps Research Institute Molecular Screening Center, 2011).
The source made the active and inactive calls. The rule behind the calls is not given here.

What follows are compounds tested against Mu-type opioid receptor (Homo sapiens) + Delta-type opioid receptor (Homo sapiens) (UniProt P35372+P41143) (assay: OPRM1-OPRD1 heterodimer agonist potency – cell-based, luminescence, dose response (AID 588407;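 note: potency of agonists raising the heterodimer signal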)). Details: cells, MOR-DOR heterodimerization.
Chain of Mu-type opioid receptor (Homo sapiens) + Delta-type opioid receptor (Homo sapiens) (P35372 whole entry, looked up): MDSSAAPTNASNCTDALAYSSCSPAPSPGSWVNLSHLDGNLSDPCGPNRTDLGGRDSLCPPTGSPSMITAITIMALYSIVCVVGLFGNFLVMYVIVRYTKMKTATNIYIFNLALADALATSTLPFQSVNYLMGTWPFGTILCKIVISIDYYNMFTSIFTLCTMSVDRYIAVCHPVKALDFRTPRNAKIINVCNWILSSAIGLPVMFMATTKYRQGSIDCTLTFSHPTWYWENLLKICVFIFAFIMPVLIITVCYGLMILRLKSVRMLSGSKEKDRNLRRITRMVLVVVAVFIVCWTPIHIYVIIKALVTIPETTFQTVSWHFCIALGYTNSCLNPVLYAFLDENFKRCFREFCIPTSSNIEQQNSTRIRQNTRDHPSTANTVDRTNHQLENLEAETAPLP
Chain of Mu-type opioid receptor (Homo sapiens) + Delta-type opioid receptor (Homo sapiens) (P41143 whole entry, looked up): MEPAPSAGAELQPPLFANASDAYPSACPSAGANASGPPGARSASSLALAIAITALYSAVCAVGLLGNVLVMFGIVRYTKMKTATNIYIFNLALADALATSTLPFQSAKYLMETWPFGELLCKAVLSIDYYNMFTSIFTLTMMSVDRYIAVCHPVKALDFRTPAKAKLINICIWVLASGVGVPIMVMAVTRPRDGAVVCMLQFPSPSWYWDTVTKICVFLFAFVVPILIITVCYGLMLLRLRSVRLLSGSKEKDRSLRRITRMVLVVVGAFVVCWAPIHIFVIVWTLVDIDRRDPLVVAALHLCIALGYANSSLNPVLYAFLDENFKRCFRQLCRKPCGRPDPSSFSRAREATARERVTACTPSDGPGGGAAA
In the case of `CC(=O)C1CCC2C3CC=C4CC(SC(=N)N)CCC4(C)C3CCC12C` (configuration not stated), the EC50 is reported as 9.58 µM. With `COc1ccc(-n2c3c(cc(C(=O)NNc4ccccc4C)c2=O)C(=O)CC(C)(C)C3)cc1` the EC50 was 2.55 µM. In the case of `CN1CCN(Cc2nc3ccccc3c(=O)n2Cc2nc(-c3ccc4ccccc4c3)cs2)CC1`, the EC50 is reported as > 10.3 µM (inactive). For `Cc1ccc(C2(O)CN(c3ccccc3)C3=[N+]2CCS3)cc1` (configuration not stated), the EC50 was 2.93 µM. With `COc1ccc(-c2nn(-c3ccccc3C)cc2CNCc2cccnc2)cc1F` the EC50 was 7.79 µM. Work on `CSC(=Nc1ccccc1)N=C(SCc1ccccc1)N(C)C` yielded an EC50 of 7.33 µM. `CN(C)C(CNC(=O)c1ccc(Br)cc1)c1ccco1` (configuration not stated) was tested, and the EC50 was “inactive”. `CN(C)CCCN(C(=O)c1ccc(S(=O)(=O)N2CCc3ccccc3C2)cc1)c1nc2c(F)cc(F)cc2s1` gave an EC50 of 0.856 µM. In the case of `Cc1ccc(CC(=O)NCC(c2ccco2)N(C)C)cc1C` (configuration not stated), the EC50 is reported as 9.05 µM. `COCCN(C(=O)C1CC(=O)N(Cc2ccccc2)C1)c1nc(-c2ccc([N+](=O)[O-])cc2)cs1` (configuration not stated) gave an EC50 of 5.6 µM. With `Brc1ccc(NC2=Nc3ccccc3CC2)cc1` the EC50 was “inactive”. For `CN(C)C(CNC(=S)Nc1cccc(Cl)c1)c1ccccc1` (configuration not stated), the EC50 was 0.375 µM. `COc1ccc(C(CNC(=O)c2cncc(Br)c2)N(C)C)cc1` (configuration not stated) gave an EC50 of 2.02 µM. With `OCC1(CCc2ccccc2)CCN(Cc2ccccc2Cl)CC1` the EC50 was 9.21 µM. `Cc1cc2[nH]c3c4ccccc4nc(C)c3c2cc1C` was tested, and the EC50 was 7.66 µM. `CCOC(=O)C1(CC2CCCCO2)CCN(Cc2c(C)cc(C)cc2-n2cccn2)CC1` (configuration not stated) showed an EC50 of 0.53 µM. For `O=C(COc1ccc(/C=N/NC(=O)c2cc3ccccc3o2)cc1Br)Nc1ccccc1`, the EC50 was 9.7 µM. In the case of `O=C(N[C@H]1C/C=C\C[C@H](CC(=O)N(CCO)Cc2ccccc2)C(=O)N[C@H](Cc2c[nH]c3ccccc23)COC1=O)OCC1c2ccccc2-c2ccccc21`, the EC50 is reported as “inactive”. Compound `Cc1ccc(C)c(-n2cc(CNCCc3cnccn3)c(-c3ccccc3)n2)c1` has an EC50 of 10 µM. `CC(CC(=O)N(CCC1=CCCCC1)c1c(N)n(Cc2ccccc2)c(=O)[nH]c1=O)c1ccccc1` (configuration not stated) was tested, and the EC50 was > 92.5 µM (inactive). Work on `CCOc1ccc(S(=O)(=O)Nc2cccc(C(=O)NCC(c3ccccc3)N(C)C)c2)cc1` (configuration not stated) yielded an EC50 of 7.76 µM. `CN(C)C(CNC(=O)Cc1ccc([N+](=O)[O-])cc1)c1ccccc1` (configuration not stated) gave an EC50 of 7.74 µM. `O=S(=O)(c1c(Cl)cc(Br)cc1Cl)N1CCN(C(=S)NC2CC2)CC1` was tested, and the EC50 was 5.98 µM. In the case of `CCCC(=O)NC(C)C(c1cccs1)N1CCN(c2ccccc2)CC1` (configuration not stated), the EC50 is reported as “inactive”. Work on `CN(C)C(CNC(=O)Cc1ccc(Br)cc1)c1ccccc1` (configuration not stated) yielded an EC50 of 0.915 µM. `Cc1ccc(OCC(=O)Nc2ccc(NC(=O)c3cccs3)cc2)c(C)c1` was tested, and the EC50 was > 10.3 µM (inactive). For `COc1ccc(C(CNC(=O)CSc2ccccc2C)N(C)C)cc1` (configuration not stated), the EC50 was 4.56 µM. `CCc1ccc(NC(=O)Nc2ccc3c(c2)N(C)C(=O)CS3)cc1` was tested, and the EC50 was 9.42 µM. In the case of `CSCCCNC(=O)c1ccc(OC2CCN(CCc3ccccc3)CC2)cc1`, the EC50 is reported as “inactive”. In the case of `CN(C)C(CNC(=O)c1cnc(Cl)c(Cl)c1)c1ccccc1` (configuration not stated), the EC50 is reported as 0.555 µM. `OCC1(CC2CCCCO2)CCN(Cc2ccccc2-c2ccco2)CC1` (configuration not stated) was tested, and the EC50 was 4.76 µM. In the case of `CC1=C/C(=N\OS(=O)(=O)c2ccccc2)C(C)=CC1=O`, the EC50 is reported as “inactive”. With `CN(C)C(CNC(=O)NC1CCCCC1)c1cccnc1` (configuration not stated) the EC50 was 1.27 µM. In the case of `CN(C)CCCN(C(=O)c1ccc(S(=O)(=O)N2CCc3ccccc3C2)cc1)c1nc2ccc(F)cc2s1`, the EC50 is reported as 1.27 µM. Compound `CC[C@@H](C)[C@@H]1CN([C@@H](CN2CCC[C@H]2CN2C(N)=NC[C@H]2C(C)C)C(C)C)C(=N)N1CCc1ccc(Cl)c(Cl)c1` has an EC50 of 2.36 µM. `CCn1cc(CNCc2cn(-c3ccccc3C)nc2-c2ccc(OC)c(F)c2)cn1` was tested, and the EC50 was 1.75 µM. `Cc1ccccc1NC(=S)NCC(c1cccnc1)N(C)C` (configuration not stated) was tested, and the EC50 was 1.54 µM. With `CCCc1nc2c(=O)n(C)c(=O)nc-2n(C)n1` the EC50 was > 92.5 µM (inactive). `COc1ccc(C(CNC(=O)CCc2ccsc2)N(C)C)cc1` (configuration not stated) gave an EC50 of 0.2 µM. Work on `CCC1(C)CC(CCNCc2ccc(N(C)C)cc2)(c2ccc(F)cc2)CCO1` (configuration not stated) yielded an EC50 of 2.9 µM. `COc1cccc(C(=O)Nc2ccc3c(c2)C(=O)c2ccccc2C3=O)c1` showed an EC50 of 6.74 µM. `COc1ccc2c(c1)C=C(CN1CCC(CO)(CCc3ccccc3)CC1)CO2` was tested, and the EC50 was “inactive”. With `CC1CN(C)C(C)c2c1oc1ccc(N)cc21` (configuration not stated) the EC50 was “inactive”. `COC(=O)NCC(c1ccc2c(c1)OCO2)N1CCN(c2ccccc2)CC1` (configuration not stated) showed an EC50 of 1.25 µM. With `Cc1cc(/C=C2\SC(=Nc3ccccc3)NC2=O)c(C)n1-c1ccc(S(N)(=O)=O)cc1` the EC50 was 1.53 µM. For `CC(=O)CSc1ccc(-c2nc3cc(C)c(C)cc3[nH]2)cn1`, the EC50 was “inactive”. `COc1ccc(CN2CCc3c([nH]c4ccccc34)C2)c(OC)c1C` was tested, and the EC50 was “inactive”. In the case of `CN(C)CCCN(C(=O)c1ccc(S(=O)(=O)N(C)Cc2ccccc2)cc1)c1nc2c(F)cccc2s1`, the EC50 is reported as 4.97 µM. For `Cc1cccc2cc(C(c3nnnn3Cc3ccccc3)N3CCN(C)CC3)c(=O)[nH]c12` (configuration not stated), the EC50 was “inactive”. In the case of `CCN(c1nc(N)c(C(=O)N=C(N)N)nc1Cl)C(C)C`, the EC50 is reported as 9.57 µM. Compound `OCC1(CCc2ccccc2)CCN(Cc2cccn2-c2cccnc2)CC1` has an EC50 of 4.69 µM. For `O=C(NCCc1ccc(Cl)cc1)C1CCC(CNc2nc(=S)[nH]c3ccccc23)CC1` (configuration not stated), the EC50 was > 92.5 µM (inactive).
